Results taken from ChEMBL document CHEMBL2069259, “Preclinical strategy to reduce clinical hepatotoxicity using in vitro bioactivation data for >200 compounds” (Chem Res Toxicol, 2012).

How the values were obtained:
[1] = tested on: Liver microsomes; experiment: Metabolic stability in human liver microsomes assessed as high signal/noise ratio (S/N of >100) by measuring GSH adduct formation at 100 uM after 90 mins by HPLC-MS analysis; settings: 1.5 h
[2] = tested on: Liver microsomes; experiment: Metabolic stability in human liver microsomes assessed as GSH adduct formation at 100 uM after 90 mins by HPLC-MS analysis; settings: 1.5 h

Compound | Stability [1] | Stability [2]
CC1(C)O[C@@H]2C[C@H]3[C@@H]4C[C@H](F)C5=CC(=O)C=C[C@]5(C)[C@H]4[C@@H](O)C[C@]3(C)[C@]2(C(=O)CO)O1 [FLUNISOLIDE] | Unstable | –
Nc1ccn([C@@H]2O[C@H](CO)[C@@H](O)[C@@H]2O)c(=O)n1 [CYTARABINE] | – | Stable
Cc1cccc(Nc2ccncc2S(=O)(=O)NC(=O)NC(C)C)c1 [TORSEMIDE] | – | Stable
C[C@]12C=CC(=O)C=C1CC[C@H]1[C@@H]3C[C@@H](O)[C@](O)(C(=O)CO)[C@@]3(C)C[C@H](O)[C@@]12F [TRIAMCINOLONE] | – | Stable
GENTAMICIN | – | Stable
COc1ccccc1OCC(O)CO (centres undefined) [GUAIFENESIN] | – | Stable
COc1cc(N)c(Cl)cc1C(=O)NC1CCN(CCCOc2ccc(F)cc2)CC1OC (centres undefined) [CISAPRIDE] | – | Stable
C[C@H]1O[C@@H](O[C@H]2[C@@H](O)C[C@H](O[C@H]3[C@@H](O)C[C@H](O[C@H]4CC[C@@]5(C)[C@H](CC[C@@H]6[C@@H]5C[C@@H](O)[C@]5(C)[C@@H](C7=CC(=O)OC7)CC[C@]65O)C4)O[C@@H]3C)O[C@@H]2C)C[C@H](O)[C@@H]1O [DIGOXIN] | – | Stable
Nc1nnc(-c2cccc(Cl)c2Cl)c(N)n1 [LAMOTRIGINE] | – | Stable
OC(Cn1cncn1)(Cn1cncn1)c1ccc(F)cc1F [FLUCONAZOLE] | – | Stable
CNCCCC12CCC(c3ccccc31)c1ccccc12 [MAPROTILINE] | – | Stable
CC(=O)[C@@]1(O)CC[C@H]2[C@@H]3C=C(Cl)C4=CC(=O)[C@@H]5C[C@@H]5[C@]4(C)[C@H]3CC[C@@]21C [CYPROTERONE] | Unstable | –
CN[C@@H](C)Cc1ccccc1 [METHAMPHETAMINE] | – | Stable
NCCC(O)(P(=O)(O)O)P(=O)(O)O [PAMIDRONIC ACID] | – | Stable
NC(=O)c1cnccn1 [PYRAZINAMIDE] | – | Stable
CO[C@H]1C[C@H](O[C@H]2[C@H](C)[C@@H](O[C@@H]3O[C@H](C)C[C@H](N(C)C)[C@H]3OC(C)=O)[C@@H](C)C[C@@]3(CO3)C(=O)[C@H](C)[C@@H](OC(C)=O)[C@@H](C)[C@@H](C)OC(=O)[C@@H]2C)O[C@@H](C)[C@@H]1OC(C)=O [TROLEANDOMYCIN] | Unstable | –
COc1cc2nc(N3CCN(C(=O)C4CCCO4)CC3)nc(N)c2cc1OC (centres undefined) [TERAZOSIN] | – | Stable
CCN(CC)Cc1cc(Nc2ccnc3cc(Cl)ccc23)ccc1O.Cl | – | Unstable
CN/C(=N/CCSCc1nc[nH]c1C)NC#N [CIMETIDINE] | Unstable | –
CCOC(=O)C1(c2ccccc2)CCN(C)CC1 [MEPERIDINE] | – | Stable
O=C(O)c1cc(=O)c2c(OCC(O)COc3cccc4oc(C(=O)O)cc(=O)c34)cccc2o1 [CROMOLYN] | – | Stable
CCCC1O[C@@H]2C[C@H]3[C@@H]4CCC5=CC(=O)C=C[C@]5(C)[C@H]4[C@@H](O)C[C@]3(C)[C@]2(C(=O)CO)O1 (some centres undefined) [BUDESONIDE] | – | Stable
O=c1[nH]cnc2c1ncn2[C@H]1CC[C@@H](CO)O1 [DIDANOSINE] | – | Stable
OCCOCCN1CCN(C(c2ccccc2)c2ccc(Cl)cc2)CC1 (centres undefined) [HYDROXYZINE] | – | Stable
Cc1ccccc1C(OCCN(C)C)c1ccccc1 (centres undefined) [ORPHENADRINE] | – | Stable

Compound | Stability [1] | Stability [2]
C[C@H](N)[C@H](O)c1cccc(O)c1 [METARAMINOL] | – | Stable
CC/C(=C(\c1ccccc1)c1ccc(OCCN(C)C)cc1)c1ccccc1 [TAMOXIFEN] | – | Stable
CC(C)(C)NC(=O)[C@H]1CC[C@H]2[C@@H]3CC[C@H]4NC(=O)C=C[C@]4(C)[C@H]3CC[C@]12C [FINASTERIDE] | – | Stable
CN(C)C(=O)Oc1cccc([N+](C)(C)C)c1.[Br-] [NEOSTIGMINE BROMIDE] | – | Stable
CCc1nn(CCCN2CCN(c3cccc(Cl)c3)CC2)c(=O)n1CCOc1ccccc1 [NEFAZODONE] | – | Stable
CC1COc2c(N3CCN(C)CC3)c(F)cc3c(=O)c(C(=O)O)cn1c23 (centres undefined) [OFLOXACIN] | – | Stable
O=C1NC(=O)C(c2ccccc2)(c2ccccc2)N1 [PHENYTOIN] | – | Stable
CC(C)(N)Cc1ccccc1 [PHENTERMINE] | – | Stable
COc1ccc2c(c1)c(CC(=O)O)c(C)n2C(=O)c1ccc(Cl)cc1 [INDOMETHACIN] | – | Stable
CN1CC[C@]23c4c5ccc(O)c4O[C@H]2C(=O)CC[C@@]3(O)[C@H]1C5 [OXYMORPHONE] | – | Stable
CC(CCc1ccccc1)NCC(O)c1ccc(O)c(C(N)=O)c1 (centres undefined) [LABETALOL] | – | Stable
Oc1ncnc2[nH]ncc12 [ALLOPURINOL] | – | Stable
C[C@@H]1C[C@H]2[C@@H]3CCC4=CC(=O)C=C[C@]4(C)[C@@]3(F)[C@@H](O)C[C@]2(C)[C@@]1(O)C(=O)CO [DEXAMETHASONE] | – | Stable
CCC1(c2ccccc2)C(=O)NC(=O)NC1=O [PHENOBARBITAL] | – | Stable
C[C@](N)(Cc1ccc(O)cc1)C(=O)O [METYROSINE] | – | Stable
O=P(O)(O)C(O)(Cc1cccnc1)P(=O)(O)O [RISEDRONIC ACID] | – | Stable
C[C@H]1C[C@H]2[C@@H]3CCC4=CC(=O)C=C[C@]4(C)[C@@]3(Cl)[C@@H](O)C[C@]2(C)[C@@]1(O)C(=O)CO [BECLOMETHASONE] | – | Stable
Cc1cc2c(s1)Nc1ccccc1N=C2N1CCN(C)CC1 [OLANZAPINE] | – | Stable
CC(C)C[C@H](N)C(=O)O [LEUCINE] | – | Stable
Nc1cc(N2CCCCC2)nc(N)[n+]1[O-] [MINOXIDIL] | – | Unstable
CC(O)(P(=O)(O)O)P(=O)(O)O [ETIDRONIC ACID] | – | Stable
CCN1CCC[C@H]1CNC(=O)c1c(OC)ccc(Br)c1OC [REMOXIPRIDE] | – | Stable
CN1CC[C@]23c4c5ccc(O)c4O[C@H]2C(=O)CC[C@H]3[C@H]1C5 [HYDROMORPHONE] | – | Stable
CCN(CC)CCCC(C)Nc1ccnc2cc(Cl)ccc12 (centres undefined) [CHLOROQUINE] | – | Stable
COc1ccc2c3c1O[C@H]1C(=O)CC[C@H]4[C@@H](C2)N(C)CC[C@]314 [HYDROCODONE] | – | Stable

Compound | Stability [1] | Stability [2]
CCCCC[C@H](O)/C=C/[C@H]1[C@H](O)CC(=O)[C@@H]1CCCCCCC(=O)O [ALPROSTADIL] | – | Stable
CC(C)(O/N=C(\C(=O)N[C@@H]1C(=O)N2C(C(=O)[O-])=C(C[n+]3ccccc3)CS[C@H]12)c1csc(N)n1)C(=O)O [CEFTAZIDIME] | – | Stable
CC1(C)NC(=O)N(c2ccc([N+](=O)[O-])c(C(F)(F)F)c2)C1=O [NILUTAMIDE] | – | Stable
NC(=O)OCC(COC(N)=O)c1ccccc1 [FELBAMATE] | – | Stable
CCCNC(=O)NS(=O)(=O)c1ccc(Cl)cc1 [CHLORPROPAMIDE] | – | Stable
CN(Cc1cnc2nc(N)nc(N)c2n1)c1ccc(C(=O)N[C@@H](CCC(=O)O)C(=O)O)cc1 [METHOTREXATE] | – | Stable
CCNC(=O)[C@@H]1CCCN1C(=O)[C@H](CCCNC(=N)N)NC(=O)[C@H](CC(C)C)NC(=O)[C@@H](CC(C)C)NC(=O)[C@H](Cc1ccc(O)cc1)NC(=O)[C@H](CO)NC(=O)[C@H](Cc1c[nH]c2ccccc12)NC(=O)[C@H](Cc1c[nH]cn1)NC(=O)[C@@H]1CCC(=O)N1 [LEUPROLIDE] | – | Stable
CC[C@H]1OC(=O)[C@H](C)[C@@H](O[C@H]2C[C@@](C)(OC)[C@@H](O)[C@H](C)O2)[C@H](C)[C@@H](O[C@@H]2O[C@H](C)C[C@H](N(C)C)[C@H]2O)[C@](C)(O)C[C@@H](C)CN(C)[C@H](C)[C@@H](O)[C@]1(C)O [AZITHROMYCIN] | – | Stable
O=C1CN(/N=C/c2ccc(-c3ccc([N+](=O)[O-])cc3)o2)C(O)=N1 [DANTROLENE] | – | Stable
Cc1cn([C@H]2C[C@H](N=[N+]=[N-])[C@@H](CO)O2)c(=O)[nH]c1=O [ZIDOVUDINE] | – | Stable
CC(C)Cc1ccc(C(C)C(=O)O)cc1 (centres undefined) [IBUPROFEN] | – | Stable
C[C@]12CC[C@H]3[C@@H](CCC4=CC(=O)CC[C@@]43C)[C@@H]1CC[C@@H]2O [TESTOSTERONE] | – | Stable
CC(=O)[C@H]1CC[C@H]2[C@@H]3CCC4=CC(=O)CC[C@]4(C)[C@H]3CC[C@]12C [PROGESTERONE] | – | Stable
CC[C@H]1OC(=O)[C@H](C)[C@@H](O[C@H]2C[C@@](C)(OC)[C@@H](O)[C@H](C)O2)[C@H](C)[C@@H](O[C@@H]2O[C@H](C)C[C@H](N(C)C)[C@H]2O)[C@](C)(O)C[C@@H](C)C(=O)[C@H](C)[C@@H](O)[C@]1(C)O [ERYTHROMYCIN] | – | Stable
CCN1CCN(C(=O)N[C@@H](C(=O)N[C@@H]2C(=O)N3C(C(=O)O)=C(CSc4nnnn4C)CS[C@H]23)c2ccc(O)cc2)C(=O)C1=O [CEFOPERAZONE] | – | Stable
CN(C)CCCN1c2ccccc2Sc2ccc(Cl)cc21 [CHLORPROMAZINE] | – | Stable
CCN1CCCC1CNC(=O)c1cc(S(N)(=O)=O)ccc1OC (centres undefined) [SULPIRIDE] | – | Stable
CO[C@H](C(=O)[C@@H](O)[C@@H](C)O)[C@@H]1Cc2cc3cc(O[C@H]4C[C@@H](O[C@H]5C[C@@H](O)[C@H](O)[C@@H](C)O5)[C@H](O)[C@@H](C)O4)c(C)c(O)c3c(O)c2C(=O)[C@H]1O[C@H]1C[C@@H](O[C@H]2C[C@@H](O[C@H]3C[C@](C)(O)[C@H](O)[C@@H](C)O3)[C@@H](O)[C@@H](C)O2)[C@H](O)[C@@H](C)O1 [PLICAMYCIN] | – | Stable
CCOC(=O)C(C)(C)Oc1ccc(Cl)cc1 [CLOFIBRATE] | – | Stable
CC(C)NCC(O)c1ccc(NS(C)(=O)=O)cc1 (centres undefined) [SOTALOL] | – | Stable
Cn1c(=O)c2c(ncn2C)n(C)c1=O [CAFFEINE] | – | Stable
O=c1[nH]c(=O)n([C@H]2C[C@H](O)[C@@H](CO)O2)cc1F [FLOXURIDINE] | – | Stable
NC(=O)C[S+]([O-])C(c1ccccc1)c1ccccc1 (centres undefined) [MODAFINIL] | – | Stable
COc1ccc([C@@H]2Sc3ccccc3N(CCN(C)C)C(=O)[C@@H]2OC(C)=O)cc1 [DILTIAZEM] | – | Stable
